This passage reports IC50 results from US12427157B2, “Methods for treatment of diseases involving acidic or hypoxic diseased tissues” (Cybrexa 1, Inc., priority 2018, dated 2025).

Residues, ends and D or L forms follow the SMILES beside them. *: point of attachment. X17 = C[C@@H](COC(=O)N1CCC[C@@H](c2ccc(-n3cc4cccc(C(N)=O)c4n3)cc2)C1)S*; X5 = CNCc1ccc(-c2c3c4c(cc(F)cc4n2[C@H](CC(C)C)NC(=O)OCCS*)C(=O)NCC3)cc1; X15 = Cc1cc(S*)ccc1COC(=O)N(C)Cc1ccc(-c2[nH]c3cc(F)cc4c3c2CCNC4=O)cc1; X12 = C[C@H](COC(=O)N(C)Cc1ccc(-c2[nH]c3cc(F)cc4c3c2CCNC4=O)cc1)S*; X21 = NC(=O)c1cccc2cn(-c3ccc([C@@H]4CCCN(C(=O)OCCS*)C4)cc3)nc12

Chain of PARP (P09874 whole entry): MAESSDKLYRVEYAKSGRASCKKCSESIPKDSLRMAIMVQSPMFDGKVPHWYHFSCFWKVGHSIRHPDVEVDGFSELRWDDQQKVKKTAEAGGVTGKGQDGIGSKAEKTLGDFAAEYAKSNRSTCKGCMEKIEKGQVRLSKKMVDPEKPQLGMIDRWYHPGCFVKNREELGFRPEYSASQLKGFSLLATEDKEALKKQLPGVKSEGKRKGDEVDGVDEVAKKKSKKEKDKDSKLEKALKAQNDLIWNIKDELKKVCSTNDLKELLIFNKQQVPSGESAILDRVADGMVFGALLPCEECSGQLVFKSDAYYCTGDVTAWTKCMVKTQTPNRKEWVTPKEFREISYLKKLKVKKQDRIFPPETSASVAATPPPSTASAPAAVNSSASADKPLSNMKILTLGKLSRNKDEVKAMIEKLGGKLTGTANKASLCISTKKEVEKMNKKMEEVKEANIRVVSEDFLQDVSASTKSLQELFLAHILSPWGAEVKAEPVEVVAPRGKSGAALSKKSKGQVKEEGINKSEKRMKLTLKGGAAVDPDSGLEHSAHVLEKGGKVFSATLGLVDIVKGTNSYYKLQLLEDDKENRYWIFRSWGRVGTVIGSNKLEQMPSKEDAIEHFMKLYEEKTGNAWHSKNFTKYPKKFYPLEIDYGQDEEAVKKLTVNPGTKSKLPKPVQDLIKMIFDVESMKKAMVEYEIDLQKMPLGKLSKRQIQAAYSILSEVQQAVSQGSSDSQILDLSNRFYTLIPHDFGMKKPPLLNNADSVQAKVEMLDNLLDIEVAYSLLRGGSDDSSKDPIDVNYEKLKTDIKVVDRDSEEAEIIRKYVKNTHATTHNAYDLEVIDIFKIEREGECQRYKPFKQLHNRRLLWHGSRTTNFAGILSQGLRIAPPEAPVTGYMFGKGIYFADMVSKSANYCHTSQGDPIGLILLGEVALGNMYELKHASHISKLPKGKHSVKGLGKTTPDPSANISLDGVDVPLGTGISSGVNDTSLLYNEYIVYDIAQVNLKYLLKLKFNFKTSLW

The first assay has as its target PARP (Homo sapiens, UniProt P09874). Put plainly: Enzymatic Assay 2: HT Universal Chemiluminescent PARP Assay of cleaved compounds.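 Note: PARP reaction with activated DNA run 1 h at room temperature, product detected via streptavidin-HRP and luminescence endpoint reading on a plate reader.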
Conditions: not given
As a reminder, the IC50 is the concentration that inhibits the measured activity by half. `C[C@]12CCCN1C1=NNC(=O)c3cc(F)cc4[nH]c(c1c34)C2` [R^8H-17, reference compound] gave an IC50 of 1 nM.

The same assay, now with this note: read-out: IC50 Enzymatic Assay 2; Examples cleaved per Example A (crude cleavage solution); R^8H starting materials as such.
As for `CC[C@H](C)[C@H](NC(=O)[C@@H]1CCCN1C(=O)[C@H](CC(N)=O)NC(=O)[C@H](CCC(N)=O)NC(=O)[C@H](CCC(=O)O)NC(=O)[C@H](C)N)C(=O)N[C@@H](Cc1ccc(O)cc1)C(=O)N[C@@H](Cc1c[nH]c2ccccc12)C(=O)N[C@@H](C)C(=O)N[C@@H](CCCNC(=N)N)C(=O)N[C@@H](Cc1ccc(O)cc1)C(=O)N[C@@H](C)C(=O)N[C@@H](CC(=O)O)C(=O)N[C@@H](Cc1c[nH]c2ccccc12)C(=O)N[C@@H](CC(C)C)C(=O)N[C@@H](Cc1ccccc1)C(=O)N[C@H](C(=O)N[C@H](C(=O)N1CCC[C@H]1C(=O)N[C@@H](CC(C)C)C(=O)N[C@@H](CC(C)C)C(=O)N[C@@H](CC(C)C)C(=O)N[C@@H](CC(C)C)C(=O)N[C@@H](CC(=O)O)C(=O)N[C@@H](CC(C)C)C(=O)N[C@@H](C)C(=O)N[C@@H](CC(C)C)C(=O)N[C@@H](CC(C)C)C(=O)N[C@H](C(=O)N[C@@H](CC(=O)O)C(=O)N[C@@H](C)C(=O)N[C@@H](CC(=O)O)C(=O)N[C@@H](CCC(=O)O)C(=O)N[C@@H](CSS[C@H](C)COC(=O)N(C)Cc1ccc(-c2[nH]c3cc(F)cc4c3c2CCNC4=O)cc1)C(=O)NCC(=O)O)C(C)C)[C@@H](C)O)[C@@H](C)O` [Example 19] (H-AEQNPIYWARYADWLFTTPLLLLDLALLVDADEC(X12)G-OH; N-terminus and C-terminus assumed), the IC50 came to 2.2 nM.

Take `CC[C@H](C)[C@H](NC(=O)[C@@H]1CCCN1C(=O)[C@H](CC(N)=O)NC(=O)[C@H](CCC(N)=O)NC(=O)[C@H](CCC(=O)O)NC(=O)[C@H](C)N)C(=O)N[C@@H](Cc1ccc(O)cc1)C(=O)N[C@@H](Cc1c[nH]c2ccccc12)C(=O)N[C@@H](C)C(=O)N[C@@H](CCCNC(=N)N)C(=O)N[C@@H](Cc1ccc(O)cc1)C(=O)N[C@@H](C)C(=O)N[C@@H](CC(=O)O)C(=O)N[C@@H](Cc1c[nH]c2ccccc12)C(=O)N[C@@H](CC(C)C)C(=O)N[C@@H](Cc1ccccc1)C(=O)N[C@H](C(=O)N[C@H](C(=O)N1CCC[C@H]1C(=O)N[C@@H](CC(C)C)C(=O)N[C@@H](CC(C)C)C(=O)N[C@@H](CC(C)C)C(=O)N[C@@H](CC(C)C)C(=O)N[C@@H](CC(=O)O)C(=O)N[C@@H](CC(C)C)C(=O)N[C@@H](C)C(=O)N[C@@H](CC(C)C)C(=O)N[C@@H](CC(C)C)C(=O)N[C@H](C(=O)N[C@@H](CC(=O)O)C(=O)N[C@@H](C)C(=O)N[C@@H](CC(=O)O)C(=O)N[C@@H](CCC(=O)O)C(=O)N[C@@H](CSS[C@@H](C)COC(=O)N1CCC[C@@H](c2ccc(-n3cc4cccc(C(N)=O)c4n3)cc2)C1)C(=O)NCC(=O)O)C(C)C)[C@@H](C)O)[C@@H](C)O` [Example 48] (H-AEQNPIYWARYADWLFTTPLLLLDLALLVDADEC(X17)G-OH; N-terminus and C-terminus assumed): the IC50 was found to be 2.1 nM.

Regarding `CC[C@H](C)[C@H](NC(=O)[C@@H]1CCCN1C(=O)[C@H](CC(N)=O)NC(=O)[C@H](CCC(N)=O)NC(=O)[C@H](CCC(=O)O)NC(=O)[C@H](C)N)C(=O)N[C@@H](Cc1ccc(O)cc1)C(=O)N[C@@H](Cc1c[nH]c2ccccc12)C(=O)N[C@@H](C)C(=O)N[C@@H](CCCNC(=N)N)C(=O)N[C@@H](Cc1ccc(O)cc1)C(=O)N[C@@H](C)C(=O)N[C@@H](CC(=O)O)C(=O)N[C@@H](Cc1c[nH]c2ccccc12)C(=O)N[C@@H](CC(C)C)C(=O)N[C@@H](Cc1ccccc1)C(=O)N[C@H](C(=O)N[C@H](C(=O)N1CCC[C@H]1C(=O)N[C@@H](CC(C)C)C(=O)N[C@@H](CC(C)C)C(=O)N[C@@H](CC(C)C)C(=O)N[C@@H](CC(C)C)C(=O)N[C@@H](CC(=O)O)C(=O)N[C@@H](CC(C)C)C(=O)N[C@@H](C)C(=O)N[C@@H](CC(C)C)C(=O)N[C@@H](CC(C)C)C(=O)N[C@H](C(=O)N[C@@H](CC(=O)O)C(=O)N[C@@H](C)C(=O)N[C@@H](CC(=O)O)C(=O)N[C@@H](CCC(=O)O)C(=O)N[C@@H](CSSCCOC(=O)N1CCC[C@@H](c2ccc(-n3cc4cccc(C(N)=O)c4n3)cc2)C1)C(=O)NCC(=O)O)C(C)C)[C@@H](C)O)[C@@H](C)O` [Example 49] (H-AEQNPIYWARYADWLFTTPLLLLDLALLVDADEC(X21)G-OH; N-terminus and C-terminus assumed), the IC50 is 26 nM.

Take `CC(C)C[C@H](NC(=O)[C@H](Cc1ccc(O)cc1)NC(=O)[C@H](C)NC(=O)[C@H](CCCNC(=N)N)NC(=O)[C@H](Cc1c[nH]c2ccccc12)NC(=O)[C@@H]1CCCN1C(=O)[C@H](CC(N)=O)NC(=O)[C@H](CCC(N)=O)NC(=O)[C@H](CC(=O)O)NC(=O)[C@H](CC(=O)O)NC(=O)[C@H](C)N)C(=O)N[C@@H](CC(=O)O)C(=O)N[C@@H](CC(C)C)C(=O)N[C@@H](CC(C)C)C(=O)N[C@@H](Cc1ccccc1)C(=O)N1CCC[C@H]1C(=O)N[C@H](C(=O)N[C@@H](CC(=O)O)C(=O)N[C@H](C(=O)N[C@@H](CC(C)C)C(=O)N[C@@H](CC(C)C)C(=O)N[C@@H](CC(C)C)C(=O)N[C@@H](CC(=O)O)C(=O)N[C@@H](CC(C)C)C(=O)N[C@@H](CC(C)C)C(=O)N[C@@H](Cc1c[nH]c2ccccc12)C(=O)N[C@@H](CC(=O)O)C(=O)N[C@@H](C)C(=O)N[C@@H](CC(=O)O)C(=O)N[C@@H](CCC(=O)O)C(=O)N[C@@H](CSSCCOC(=O)N1CCC[C@@H](c2ccc(-n3cc4cccc(C(N)=O)c4n3)cc2)C1)C(=O)NCC(=O)O)[C@@H](C)O)[C@@H](C)O` [Example 10]: the IC50 is 64.9 nM.

For `CC[C@H](C)[C@H](NC(=O)[C@@H]1CCCN1C(=O)[C@H](CC(N)=O)NC(=O)[C@H](CCC(N)=O)NC(=O)[C@H](CCC(=O)O)NC(=O)[C@H](C)N)C(=O)N[C@@H](Cc1ccc(O)cc1)C(=O)N[C@@H](Cc1c[nH]c2ccccc12)C(=O)N[C@@H](C)C(=O)N[C@@H](CCCNC(=N)N)C(=O)N[C@@H](Cc1ccc(O)cc1)C(=O)N[C@@H](C)C(=O)N[C@@H](CC(=O)O)C(=O)N[C@@H](Cc1c[nH]c2ccccc12)C(=O)N[C@@H](CC(C)C)C(=O)N[C@@H](Cc1ccccc1)C(=O)N[C@H](C(=O)N[C@H](C(=O)N1CCC[C@H]1C(=O)N[C@@H](CC(C)C)C(=O)N[C@@H](CC(C)C)C(=O)N[C@@H](CC(C)C)C(=O)N[C@@H](CC(C)C)C(=O)N[C@@H](CC(=O)O)C(=O)N[C@@H](CC(C)C)C(=O)N[C@@H](C)C(=O)N[C@@H](CC(C)C)C(=O)N[C@@H](CC(C)C)C(=O)N[C@H](C(=O)N[C@@H](CC(=O)O)C(=O)N[C@@H](C)C(=O)N[C@@H](CC(=O)O)C(=O)N[C@@H](CCC(=O)O)C(=O)N[C@@H](CSSc1ccc(COC(=O)N(C)Cc2ccc(-c3[nH]c4cc(F)cc5c4c3CCNC5=O)cc2)c(C)c1)C(=O)NCC(=O)O)C(C)C)[C@@H](C)O)[C@@H](C)O` [Example 30] (H-AEQNPIYWARYADWLFTTPLLLLDLALLVDADEC(X15)G-OH; N-terminus and C-terminus assumed), the IC50 is 2.9 nM.

`CC(C)C[C@H](NC(=O)[C@H](Cc1ccc(O)cc1)NC(=O)[C@H](C)NC(=O)[C@H](CCCNC(=N)N)NC(=O)[C@H](Cc1c[nH]c2ccccc12)NC(=O)[C@@H]1CCCN1C(=O)[C@H](CC(N)=O)NC(=O)[C@H](CCC(N)=O)NC(=O)[C@H](CC(=O)O)NC(=O)[C@H](CC(=O)O)NC(=O)[C@H](C)N)C(=O)N[C@@H](CC(=O)O)C(=O)N[C@@H](CC(C)C)C(=O)N[C@@H](CC(C)C)C(=O)N[C@@H](Cc1ccccc1)C(=O)N1CCC[C@H]1C(=O)N[C@H](C(=O)N[C@@H](CC(=O)O)C(=O)N[C@H](C(=O)N[C@@H](CC(C)C)C(=O)N[C@@H](CC(C)C)C(=O)N[C@@H](CC(C)C)C(=O)N[C@@H](CC(=O)O)C(=O)N[C@@H](CC(C)C)C(=O)N[C@@H](CC(C)C)C(=O)N[C@@H](Cc1c[nH]c2ccccc12)C(=O)N[C@@H](CC(=O)O)C(=O)N[C@@H](C)C(=O)N[C@@H](CC(=O)O)C(=O)N[C@@H](CCC(=O)O)C(=O)N[C@@H](CSS[C@H](C)COC(=O)N(C)Cc1ccc(-c2[nH]c3cc(F)cc4c3c2CCNC4=O)cc1)C(=O)NCC(=O)O)[C@@H](C)O)[C@@H](C)O` [Example 20]: the IC50 is 1.7 nM.

With `CC[C@H](C)[C@H](NC(=O)[C@@H]1CCCN1C(=O)[C@H](CC(N)=O)NC(=O)[C@H](CCC(N)=O)NC(=O)[C@H](CCC(=O)O)NC(=O)[C@H](C)N)C(=O)N[C@@H](Cc1ccc(O)cc1)C(=O)N[C@@H](Cc1c[nH]c2ccccc12)C(=O)N[C@@H](C)C(=O)N[C@@H](CCCNC(=N)N)C(=O)N[C@@H](Cc1ccc(O)cc1)C(=O)N[C@@H](C)C(=O)N[C@@H](CC(=O)O)C(=O)N[C@@H](Cc1c[nH]c2ccccc12)C(=O)N[C@@H](CC(C)C)C(=O)N[C@@H](Cc1ccccc1)C(=O)N[C@H](C(=O)N[C@H](C(=O)N1CCC[C@H]1C(=O)N[C@@H](CC(C)C)C(=O)N[C@@H](CC(C)C)C(=O)N[C@@H](CC(C)C)C(=O)N[C@@H](CC(C)C)C(=O)N[C@@H](CC(=O)O)C(=O)N[C@@H](CC(C)C)C(=O)N[C@@H](C)C(=O)N[C@@H](CC(C)C)C(=O)N[C@@H](CC(C)C)C(=O)N[C@H](C(=O)N[C@@H](CC(=O)O)C(=O)N[C@@H](C)C(=O)N[C@@H](CC(=O)O)C(=O)N[C@@H](CCC(=O)O)C(=O)N[C@@H](CSSCCOC(=O)N[C@@H](CC(C)C)n1c(-c2ccc(CNC)cc2)c2c3c(cc(F)cc31)C(=O)NCC2)C(=O)NCC(=O)O)C(C)C)[C@@H](C)O)[C@@H](C)O` [Example 34] (H-AEQNPIYWARYADWLFTTPLLLLDLALLVDADEC(X5)G-OH; N-terminus and C-terminus assumed), the IC50 came out at 2.5 nM.
